In this experiment the target is T1, hMOR-1 (Homo sapiens, UniProt P35372).
T1 construct: gene OPRM1; classical 7TM splice variant, C-terminal GFP fusion kept (pcDNA3-GFP), stably expressed in HEK 293 cells
The experiment is described as follows: cell-based. From the text:
inhibition of forskolin-stimulated cAMP accumulation, [3H]-cAMP competition assay on hMOR-1

Each structure is given as a SMILES string.

T1 sequence (P35372 whole entry, the tested form may be a part, canonical isoform): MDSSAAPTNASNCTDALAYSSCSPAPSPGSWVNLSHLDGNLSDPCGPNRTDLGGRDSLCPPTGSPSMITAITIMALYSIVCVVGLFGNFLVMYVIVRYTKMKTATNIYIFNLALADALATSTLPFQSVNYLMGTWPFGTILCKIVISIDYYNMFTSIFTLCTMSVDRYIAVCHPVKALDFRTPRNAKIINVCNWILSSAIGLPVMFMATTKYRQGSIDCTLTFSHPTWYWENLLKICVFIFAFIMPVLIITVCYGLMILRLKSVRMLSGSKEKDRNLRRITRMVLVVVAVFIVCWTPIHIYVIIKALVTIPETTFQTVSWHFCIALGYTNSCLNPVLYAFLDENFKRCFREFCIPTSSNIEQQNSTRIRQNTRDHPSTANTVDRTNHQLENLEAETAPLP

On to `CN1CC[C@]23c4c5ccc(O)c4O[C@H]2[C@@H](O[C@@H]2O[C@H](C(=O)O)[C@@H](O)[C@H](O)[C@H]2O)C=C[C@H]3[C@H]1C5` [M6G], for which the IC50 was determined as 27.3 ± 11.2 nM.

In general, IC50 refers to the point on the concentration scale where inhibition reaches its midpoint. A lower IC50 goes with higher potency.

Source of the values: publication PMC3741380, “The N-Terminally Truncated µ3 and µ3-Like Opioid Receptors Are Transcribed from a Novel Promoter Upstream of Exon 2 in the Human OPRM1 Gene” (PLoS ONE, 2013).
